Measured values reported in patent US20190223437A1, “ACTIVE COMPOUND COMBINATIONS COMPRISING A 5-SUBSTITUTED IMIDAZOLE DERIVATIVE” (BAYER CROPSCIENCE AKTIENGESELLSCHAFT, priority 2016, published 2019).
Several values for one entry are separate records, joined by “and”; a condition that tells them apart may be missing. Identical values can stand only once. Like-named read-outs stand apart in the source and are kept apart here.

Legend:
[1] = test system: Sphaerotheca fuliginea; assay: Example D: in vivo preventive test on Sphaerotheca test (cucumbers); settings: compound alone
[2] = test system: Alternaria alternata; assay: Example F: in vitro-Test with Alternaria alternata; format: cell-based; settings: compound alone, growth inhibition, photometric, 3-5 days after application
[3] = Example G: in vivo ecotoxicity screening test on fish (Danio rerio); settings: Danio rerio, in vivo, other: exposure of embryos in water containing the compound
Description: (§1) with ECxi the Effect Concentration (EC) of each chemical i (in ppm) causing x % effect on the ecotoxicity test endpoint.
(§2) For each compound combination, the predicted ECx value is calculated. It is then compared to an experimentally measured value. The ratio of predicted versus measured effect for the combination (thereafter called the Model Deviation Ratio or MDR) is then calculated.
(§3) The environmental effect of the compound combinations was measured experimentally in laboratory ecotoxicity screening studies with fish (Danio rerio). […] Mortality was recorded after 48 h and 96 h for each tested concentration and a reference control. […] Then, the MDR values were calculated.
(§4) This concentrate is then diluted with water to the desired a.i. concentration, leading to a maximal solvent concentration of 0.5%. by weight The compounds alone and the combinations were tested for five increasing concentrations comprised between 0.01 and 1000 ppm (mg/1) a.i., (e.g. 0.1, 1.0, 10 and 100 ppm a.i). For the combinations, compounds A and B were mixed in a weight ratio of 5:1 to 1:5 and five increasing concentrations were tested for each ratio.

[4] = test system: causal agent of soybean rust (Phakopsora pachyrhizi); assay: Example C: in vivo preventive test on Phakopsora test (soybeans); settings: compound alone
[5] = test system: causal agent of apple scab (Venturia inaequalis); assay: Example E: in vivo preventive test on Venturia test (apples); settings: compound alone
[6] = test system: Pyrenophora oryzae; assay: Example F: in vitro-Test with Pyrenophora oryzae; format: cell-based; settings: compound alone
[7] = test system: Colletotrichum coccodes; assay: Example B: in vivo preventive test on Colletotrichum test (tomatoes); settings: compound alone
Description: (§5) The test is evaluated 3 days after the inoculation.

[8] = test system: Pyricularia oryzae; format: cell-based; settings: compound alone
[9] = test system: Septoria tritici; assay: Example F: in vitro-Test with Septoria tritici; format: cell-based; settings: compound alone
[10] = test system: fish (Danio rerio) embryos; assay: Example G: in vivo ecotoxicity screening test on fish (Danio rerio); settings: active compound alone, fish (D. rerio) embryos; for Ecotoxicity LC50-48 h found: mortality after 48 h; for Ecotoxicity LC50-96 h found: mortality after 96 h
Description: as §1, §2, §3, §4

[11] = test system: Alternaria solani; assay: Example A: in vivo preventive test on Alternaria test (tomatoes); settings: compound alone, evaluated 3 days after inoculation
Description: as §5

Molecule: CC(C)C1CCC(Cc2ccc(Cl)cc2)C1(O)Cn1cncn1 (stereo not drawn) [1.012 ipconazole]
- Efficacy in % found ([1]; 2.5 ppm a.i.): 0%
- Efficacy in % found ([1]; 5 ppm a.i.): 0%
- Efficacy in % found ([1]; 10 ppm a.i.): 0%

Molecule: CCCN(CC)CC1COC2(CCC(C(C)(C)C)CC2)O1 (stereo not drawn) [1.020 spiroxamine, spiroxamine, reference compound]
- Efficacy % ([2]; 4 ppm): 13%
- Efficacy % ([2]; 20 ppm): 5%
- Efficacy % ([2]; 100 ppm): 66%
- Efficacy in % found ([1]; 25 ppm a.i.): 0%
- Efficacy in % found ([1]; 50 ppm a.i.): 30%
- Efficacy in % found ([1]; 100 ppm a.i.): 40%
- LC50 at 48 h [3]: 16.5 µg/mL
- LC50 at 96 h [3]: 14.8 µg/mL

Molecule: Cc1nn(C)c(F)c1C(=O)Nc1ccccc1C(C)CC(C)C (stereo not drawn) [2.017 penflufen]
- Efficacy in % found ([4]; 5 ppm a.i.): 0%
- Efficacy in % found ([4]; 10 ppm a.i.): 8%
- Efficacy in % found ([4]; 20 ppm a.i.): 60%
- Efficacy in % found ([5]; 5 ppm a.i.): 18%
- Efficacy in % found ([5]; 10 ppm a.i.): 26%
- Efficacy in % found ([5]; 20 ppm a.i.): 23%

Molecule: CON=C(C(=O)OC)c1ccccc1CON=C(C)c1cccc(C(F)(F)F)c1 [3.020 trifloxystrobin]
- Efficacy % ([6]; 0.04 ppm): 0%
- Efficacy % ([6]; 0.2 ppm): 0%
- Efficacy % ([6]; 1 ppm): 0%

Molecule: COCC(=O)N(c1c(C)cccc1C)[C@H](C)C(=O)OC [12.004 mefenoxam]
- Efficacy in % found ([7]; 50 ppm a.i.): 0%
- Efficacy in % found ([7]; 100 ppm a.i.): 8%
- Efficacy in % found ([7]; 200 ppm a.i.): 15%
- Efficacy in % found ([4]; 50 ppm a.i.): 0%
- Efficacy in % found ([4]; 100 ppm a.i.): 8%
- Efficacy in % found ([4]; 200 ppm a.i.): 0%
- Efficacy % ([8]; 20 ppm): 0%
- Efficacy % ([8]; 100 ppm): 0%
- Efficacy % ([9]; 20 ppm): 28%
- Efficacy % ([9]; 100 ppm): 42%

Molecule: CCCOc1nc2ccc(I)cc2c(=O)n1CCC [13.004 proquinazid]
- Efficacy in % found ([1]; 25 ppm a.i.): 90%
- Efficacy in % found ([1]; 50 ppm a.i.): 100%
- Efficacy in % found ([1]; 100 ppm a.i.): 100%
- Efficacy % ([9]; 4 ppm): 0%
- Efficacy % ([9]; 20 ppm): 37% and 40%

Molecule: O=C(Cc1ccccc1)N/C(=N\OCC1CC1)c1c(C(F)(F)F)ccc(F)c1F [15.008 cyflufenamid]
- Efficacy in % found ([5]; 1 ppm a.i.): 0%
- Efficacy in % found ([5]; 2 ppm a.i.): 0%
- Efficacy in % found ([5]; 4 ppm a.i.): 8%

Molecule: CON=C(C(=O)OC)c1ccccc1CON=C(C)c1cccc(C(F)(F)F)c1 [15.047 trifloxystrobin]
- Efficacy % ([6]; 0.04 ppm): 17%
- Efficacy % ([6]; 0.2 ppm): 86%

Molecule: Cc1nn(C)c(F)c1C(=O)Nc1ccccc1C(C)CC(C)C (stereo not drawn) [Example 2.017, penflufen]
- Ecotoxicity LC50-48 h found [10]: 1.74 ppm a.i.
- Ecotoxicity LC50-96 h found [10]: 0.62 ppm a.i.

Molecule: CC1CC(C)(C)c2cccc(NC(=O)c3cn(C)nc3C(F)F)c21 (stereo not drawn) [Example 2.027, 3-(difluoromethyl)-1-methyl-N-(1,1,3-trimethyl-2,3-dihydro-1H-inden-4-yl)-1H-pyrazole-4-carboxamide, reference compound]
- Efficacy in % found ([4]; 1 ppm a.i.): 15%
- Efficacy in % found ([4]; 2 ppm a.i.): 85%
- Efficacy in % found ([4]; 4 ppm a.i.): 96%
- LC50 at 48 h [3]: 1.85 µg/mL
- LC50 at 96 h [3]: 1.74 µg/mL
- Efficacy in % found ([5]; 1 ppm a.i.): 8%
- Efficacy in % found ([5]; 2 ppm a.i.): 8%
- Efficacy in % found ([5]; 4 ppm a.i.): 74%
- Efficacy % ([6]; 0.8 ppm): 55%
- Efficacy % ([6]; 4 ppm): 81%

Molecule: COc1ccnc(C(=O)N[C@H]2COC(=O)[C@H](Cc3ccccc3)[C@@H](OC(=O)C(C)C)[C@H](C)OC2=O)c1OCOC(=O)C(C)C [Example 3.025, (3S,6S,7R,8R)-8-benzyl-3-[({3-[(isobutyryloxy)methoxy]-4-methoxypyridin-2-yl}carbonyl)amino]-6-methyl-4,9-dioxo-1,5-dioxonan-7-yl 2-methylpropanoate]
- Efficacy in % found ([4]; 5 ppm a.i.): 0%
- Efficacy in % found ([4]; 10 ppm a.i.): 30%
- Efficacy in % found ([4]; 20 ppm a.i.): 35%
- LC50 at 48 h [3]: 2.31 µg/mL
- LC50 at 96 h [3]: 1.87 µg/mL
- Efficacy % ([6]; 4 ppm): 0%
- Efficacy % ([6]; 20 ppm): 0%

Molecule: N#Cc1cncn1CC(O)(Cc1ccccc1F)C1(Cl)CC1 (stereo not drawn) [Example I-34, 1-[2-(1-chlorocyclopropyl)-3-(2-fluorophenyl)-2-hydroxypropyl]-1H-imidazole-5-carbonitrile]
- Efficacy in % found ([7]; 1 ppm a.i.): 8%
- Efficacy in % found ([7]; 5 ppm a.i.): 60%
- Efficacy in % found ([4]; 1 ppm a.i.): 8% and 0%
- Efficacy in % found ([4]; 5 ppm a.i.): 93% and 88%
- Efficacy in % found ([11]; 1 ppm a.i.): 15%
- Efficacy in % found ([11]; 5 ppm a.i.): 45%
- Efficacy in % found ([1]; 1 ppm a.i.): 0%
- Efficacy in % found ([1]; 5 ppm a.i.): 0%
- LC50 at 48 h [3]: 35.6 µg/mL
- LC50 at 96 h [3]: 27.4 µg/mL
- Efficacy % ([9]; 0.008 ppm): 0%
- Efficacy % ([9]; 0.04 ppm): 28%
- Efficacy % ([9]; 0.2 ppm): 59%
- Efficacy % ([9]; 1 ppm): 68%
- Efficacy in % found ([5]; 1 ppm a.i.): 8%
- Efficacy in % found ([5]; 5 ppm a.i.): 66% and 68%
- Efficacy % ([6]; 0.008 ppm): 0%
- Efficacy % ([6]; 0.2 ppm): 0%

Molecule: N#Cc1cncn1CC(O)(Cc1cccc(Cl)c1F)C1(Cl)CC1 (stereo not drawn) [Example I-145, 1-[3-(3-chloro-2-fluorophenyl)-2-(1-chlorocyclopropyl)-2-hydroxypropyl]-1H-imidazole-5-carbonitrile]
- Efficacy in % found ([7]; 1 ppm a.i.): 23%
- Efficacy in % found ([7]; 5 ppm a.i.): 75%
- Efficacy in % found ([4]; 1 ppm a.i.): 0%
- Efficacy in % found ([4]; 5 ppm a.i.): 45%
- Efficacy in % found ([11]; 1 ppm a.i.): 8%
- Efficacy in % found ([11]; 5 ppm a.i.): 40%
- Efficacy % ([8]; 0.2 ppm): 84%
- Efficacy % ([8]; 1 ppm): 87%
- Efficacy % ([2]; 0.008 ppm): 0%
- Efficacy % ([2]; 0.04 ppm): 0% and 2%
- Efficacy % ([2]; 0.2 ppm): 32%
- Efficacy % ([2]; 1 ppm): 1%
- Efficacy in % found ([1]; 1 ppm a.i.): 0%
- Efficacy in % found ([1]; 5 ppm a.i.): 0%
- LC50 at 48 h [3]: 28.2 µg/mL
- LC50 at 96 h [3]: 13.4 µg/mL
- Efficacy % ([9]; 0.008 ppm): 29%
- Efficacy % ([9]; 0.04 ppm): 25%
- Efficacy % ([9]; 0.2 ppm): 51%
- Efficacy % ([9]; 1 ppm): 63%
- Efficacy in % found ([5]; 1 ppm a.i.): 0%
- Efficacy in % found ([5]; 5 ppm a.i.): 66%
- Efficacy % ([6]; 0.008 ppm): 0%
- Efficacy % ([6]; 0.04 ppm): 0%

Molecule: mancozeb [5.013 mancozeb]
- Efficacy in % found ([7]; 12.5 ppm a.i.): 0%
- Efficacy in % found ([7]; 25 ppm a.i.): 0%
- Efficacy in % found ([7]; 50 ppm a.i.): 8%
- Efficacy in % found ([4]; 12.5 ppm a.i.): 0%
- Efficacy in % found ([4]; 25 ppm a.i.): 15%
- Efficacy in % found ([4]; 50 ppm a.i.): 80%
- Efficacy in % found ([11]; 12.5 ppm a.i.): 8%
- Efficacy in % found ([11]; 25 ppm a.i.): 10%
- Efficacy in % found ([11]; 50 ppm a.i.): 85%
- Efficacy % ([2]; 0.8 ppm): 51%
- Efficacy % ([2]; 4 ppm): 78%
- Efficacy in % found ([5]; 5 ppm a.i.): 15%
- Efficacy in % found ([5]; 10 ppm a.i.): 49%
- Efficacy in % found ([5]; 20 ppm a.i.): 95%

Molecule: metalaxyl [12.003 metalaxyl]
- Efficacy in % found ([7]; 50 ppm a.i.): 0%
- Efficacy in % found ([7]; 100 ppm a.i.): 0%
- Efficacy in % found ([7]; 200 ppm a.i.): 8%
- Efficacy in % found ([4]; 50 ppm a.i.): 0%
- Efficacy in % found ([4]; 100 ppm a.i.): 0%
- Efficacy in % found ([4]; 200 ppm a.i.): 20%
- Efficacy in % found ([11]; 50 ppm a.i.): 8%
- Efficacy in % found ([11]; 100 ppm a.i.): 8%
- Efficacy in % found ([11]; 200 ppm a.i.): 30%
- Efficacy % ([8]; 20 ppm): 0%
- Efficacy % ([8]; 100 ppm): 5%
- Ecotoxicity LC50-48 h found [10]: >200 ppm a.i.
- Ecotoxicity LC50-96 h found [10]: >200 ppm a.i.
- Efficacy % ([9]; 20 ppm): 43%
- Efficacy % ([9]; 100 ppm): 31%

Molecule: metalaxyl-M (mefenoxam) [Example 12.004]
- Ecotoxicity LC50-48 h found [10]: >200 ppm a.i.
- Ecotoxicity LC50-96 h found [10]: >200 ppm a.i.
